Results on 5 molecules are retold here after patent publication US5723115A, “Inhibition of adipose tissue development and obesity” (W. Alton Jones Cell Science Center, Inc., priority 1993, dated 1998).

One data set deals with T1, EGF receptors (Rattus norvegicus, UniProt G3V6K6).
T1 construct: adipocyte precursors have specific EGF receptors on their surface; endogenous in cells; host or cells: primary adipocyte precursors from inguinal fat pads of neonatal NBR rats
The experiment in a line: 125I-EGF binding to EGF receptors on adipocyte precursors. The conditions noted are these: control and treated rats, with or without acid wash. An excerpt: The properties of adipocytes from EGF-treated rats, namely, a decreased ability to differentiate and an increased sensitivity to EGF in vitro, could not be explained by occupancy of EGF receptors at the time of cell isolation.

In data set [1] the test system is organs including inguinal fat pads. Particulars: rat, in vivo. An excerpt:
One question raised by the above results is whether the inhibition of adipose tissue development by EGF is due to a direct action of EGF on adipose tissue or by indirect action via another growth factor or hormone. Several observations point to direct action of EGF: EGF inhibits the differentiation of primary culture of adipocyte precursors freshly isolated from inguinal fat pads (10); adipocyte precursors have specific EGF receptors on their surface (10).

The subject of data set [2] is newborn NBR rats (inguinal fat pads). Put plainly: Daily sc EGF injection of newborn NBR rats for 10 days: eyelid response, body, organ and inguinal fat pad measures. It counts as in vivo, rat. How it is done: New Zealand Brown (NBR) rats (Trudeau Institute, Saranac Lake, N.Y.) were mated in the animal facilities of the W. Alton Jones Cell Science Center. One day after delivery, litter size was adjusted to 6-8 pups/female according to the size and age of the females. No more than 8 pups/female were used. Mothers were fed ad libitum a regular laboratory diet and were allowed free access to water. Animals were housed in rooms in which the air flow, temperature and lights were controlled (12 h of light between 6 AM to 6 PM).
Mouse "receptor grade" EGF (Biomedical Technologies, Inc.) was used in all experiments. […] Beginning at 24 hrs after birth, rats were injected subcutaneously (sc) daily for 10 days with EGF dissolved in physiological saline at doses varying between 0.1 and 1.0 μg/g of body weight. The pups were weighed prior to each injection. Control animals were similarly handled and weighed, and were injected sc with an equivalent volume of physiological saline.
(§1) Inguinal fat pads, well developed in 10 day-old animals, can be easily dissected. Inguinal fat pads were excised, weighed and pooled. They were digested with collagenase using the method of Bjorntorp et al. (23), and duplicate aliquots were kept for measuring triglyceride content as described below. Digestion conditions minimized breakage of adipocytes during the incubation period (23). After digestion, the cell suspension was filtered through a 253 μm nylon mesh filter. Adipocytes were easily recovered by two successive flotations of the cell suspension. The infranatant containing the adipocyte precursors was removed with a plastic pipet and further filtered through an 80 μm nylon mesh. The adipocytes remained in the tube after removal of the infranatant. They were gently resuspended in culture medium and counted in a hemocytometer. The filtrate containing the adipocyte precursors was centrifuged twice at 200×g for 5 minutes. Adipocyte precursor pellets were resuspended in 4F medium. The cells were subsequently counted in a hemocytometer and inoculated in 35 mm dishes in 4F medium as described previously (24). Such cultures were used to evaluate the cells' ability to differentiate and to measure their responsiveness to EGF.
For determination of triglyceride content, lipids were extracted from duplicate aliquots of the fat pad cell suspensions obtained as above pads, using the method of Bligh et al. (26). Triglycerides were separated by thin-layer chromatography on silica gel plates using hexane/[…]/formic acid (60:40:1) as a solvent system. Spots containing triglycerides were scraped, and the triglyceride content was determined by the method of Marsh et al. (27). This method consists of a quantitative charring of the triglycerides at 200° C. for 15 min in the presence of concentrated sulfuric acid. Absorbance of the samples at 350 nm was measured in a spectrophotometer using known amounts of triolein as standards.
Ten separate in vivo experiments were performed with neonatal NBR rats. Over the 10 day period, pups injected with saline alone or with EGF were weighed daily. The efficiency of EGF injected was assessed by monitoring the "eyelid response," by determining the postnatal day on which eyelid opening occurs, which is related to the EGF dose (28). Eyelid opening occurred at day 8 in rats injected with EGF at a concentration of 1 μg/g body weight, 24 hrs later in rats treated with 0.6 μg EGF/g body weight, and 48 hrs later in rats injected with 0.3 μg EGF/g body weight.

Data set [3] relates to adipocyte precursors isolated from inguinal fat pads. The experiment in a line: Differentiation capacity in 4F medium of adipocyte precursors isolated from EGF-treated rats (G3PDH specific activity). It counts as cell-based, rat. The procedure:
as §1
(§2) The defined medium designated 4F consists of a 1:1 mixture of Dulbecco's modified Eagle's medium (DME) and Ham's F12 medium (DME-F12 medium) containing 15 mM HEPES, pH 7.4, 1.2 mg/ml sodium bicarbonate, 50 μg/ml gentamicin, and the following mixture of proteins: fibronectin (2.5 μg/ml), insulin (10 μg/ml), transferrin (10 μg/ml) and fibroblast growth factor (10 ng/ml). The medium was originally developed to support the differentiation of the adipogenic cell line, 1246 (25). When cultivated in this medium, optimal differentiation of adipocyte precursors was achieved within 8 days of culture (24).
It was shown previously (24) that adipocyte precursors freshly isolated from inguinal fat pads of 48 hr-old rats proliferated and differentiated in 4F medium (see above). […]

Data set [4] has the same test system. The experiment in a line: Inhibition by EGF of differentiation of primary culture adipocyte precursors (G3PDH activity). Type of data set: cell-based, rat. The procedure: as §1, §2
Studies from the present inventor's laboratory (10) have shown that the differentiation in vitro of adipocyte precursors cultivated in 4F medium was inhibited in a dose-dependent manner by EGF added to the medium. […]

The next data set has as its system adipocyte precursors. Put plainly: Effect of EGF on proliferation of adipocyte precursors in 4F medium (cell count). It counts as cell-based, rat. The procedure:
FIG. 5 is a graph showing the effect of EGF on proliferation of adipocyte precursors. Controls and EGF-treated animals as in FIG. 4. After 8 days of culture, cells were detached with trypsin and counted on a Coulter counter. Values represent means±standard errors.
For this purpose, adipocyte precursors isolated from inguinal fat pads of control or EGF-injected animals (1 μg/g body weight) were cultivated in 4F medium alone or in the presence of increasing concentrations of EGF. […] The ED50 for EGF on cells from EGF-treated animals was calculated to be 0.5 ng/ml, compared to an ED50 of 0.9 ng/ml for EGF acting on control cells.
Marked stimulation of proliferation (in cells from controls or EGF-treated rats) was observed only at EGF concentrations above 1 ng/ml.

In a further data set the test system is newborn rats. Put plainly: Neonatal EGF treatment of rats, body weight development over 28 days. It counts as in vivo, rat. The conditions noted are these: 0.6 μg/g body weight, from 24 hours after birth, 9 days. The procedure: FIG. 6 is a graph showing the effect of EGF treatment of newborn rats on development of body weight over 28 days. Rats were injected beginning at 24 hours after birth with EGF (0.6 μg/g body weight) (filled squares) or with vehicle (PBS) (+) for 9 days.

For another data set, the system named is obese yellow mice. Put plainly: Neonatal EGF treatment of obese yellow mice, body weight development over 43 days. Particulars: 1 μg/g body weight, day 1 to day 10 of life. It counts as in vivo, mouse. The procedure: FIG. 7 is a graph showing the effect of EGF treatment on development of body weight in obese yellow mice over 43 days. Mice were injected beginning at 24 hours after birth with EGF (1 μg/g body weight) (filled diamonds, marked 1Y) or with vehicle (PBS) (+, marked OY) for 9 days. Weights are shown beginning at postnatal day 13

In another data set the test system is phospholipase A2 (PLA2). Particulars: EGF 10 ng/ml. The procedure: Experiments were performed to examine whether stimulation of adipocyte precursors, either primary cultures or the 1246 cell line, activated the enzyme phospholipase A2 (PLA2) which results in the activation of cyclooxygenase and the generation of prostaglandins.
Data set [5] deals with adipocyte precursors isolated from inguinal fat pads. Particulars: earlier study; cited from earlier work.
A further data set has as its system 1246 cells. Put plainly: Differentiation of 1246 cells (G3PDH enzymatic activity). It counts as cell-based. How it is done:
FIG. 11 is a graph showing the dose-related inhibition of adipocyte differentiation by prostaglandin F2α (PGF^2α). 1246 cells were incubated with the indicated dose of pGF^2α
FIG. 12 is a graph showing that indomethacin reverses the EGF-induced inhibition of adipocyte differentiation. 1246 cells were incubated in medium ("no"=control, 100% of activity) or in the presence of indicated concentrations of EGF, indomethacin ("Indo") or a mixture of EGF (E) at the indicated concentration and indomethacin (I) at 3 μM. As above, differentiation was assessed as G3PDH enzymatic activity.
Stimulation of PLA2 will result in the activation of the cyclooxygenase pathway, leading to generation of various prostaglandins, as is well-known in the art. One metabolite of this pathway, prostaglandin F2α (PGF2α), was tested for its ability to act as a mediator of the EGF effect and inhibit adipocyte differentiation.
If EGF inhibits adipocyte differentiation via the activation of PLA2 and cyclooxygenase, it would be expected that an inhibitor of cyclooxygenase would counteract the EGF effect.

[6] abbreviates: EGF-treated compared to control animals.

Consider “^125 I-EGF: radiolabeled EGF used in binding studies”, for which the “EGF bound to EGF receptors on adipocyte precursors” value with EGF receptors is reported as “about 4 pg EGF bound per 10^5 cells”. Further, the “binding to organs after sc injection” value in data set [1] was “specifically bound to several organs including inguinal fat pads”.
For the molecule Epidermal growth factor [EGF], the “eyelid opening at termination, day 10” value in data set [2] (0.1 μg EGF/g body weight sc daily) is “eyelid opening had not yet occurred”. Moreover, in data set [2] (0.3 μg EGF/g body weight sc daily), the “eyelid opening, time later than at the 1 μg/g dose” value is 48 h. Further, in data set [2] (0.6 μg EGF/g body weight sc daily), the “eyelid opening, time later than at the 1 μg/g dose” value turned out to be 24 h. Moreover, in data set [2] (1 μg EGF/g body weight), the “fat pad triglyceride content, lower than control” value was determined as 80% and the “number of mature adipocytes in the fat pad, lower than in control animals” value is 4 fold. The “body weight, less than in control animals” value in data set [2] (1 μg EGF/g body weight, 10 days) is 40%. Moreover, the “inguinal fat pad weight, lower than in controls” value in data set [2] (1 μg of EGF/g body weight, 10 days) was 50%. For the same molecule, in data set [2] (1 μg/g body weight), the “number of adipocyte precursors per fat pad, higher than in control animals” value was determined as 1.8 fold. In addition, the “postnatal day on which eyelid opening occurs” value in [2] (1 μg/g body weight sc daily) turned out to be 8 days. Also, in data set [2] (EGF treatment), the intestinal weight result is reported as “increased”, the kidney weight result was “some decrease” and the liver weight entry is given as “unchanged”. The “total number of cells (precursors plus adipocytes) in fat pads, lower than controls” value in data set [2] (EGF-treated animals) is 40%. Besides, in [2] (setting [6]), the hair growth entry was “delay in hair growth” and the incisor eruption result is “acceleration of incisor eruption”. The “lowest EGF dose at which a significant delay of adipose tissue development was observed” value in [2] (daily sc injection) turned out to be 0.3 μg/g body weight. Moreover, the “G3PDH specific activity corresponding to 100% activity (FIG. 4)” value in data set [3] (cells from EGF-treated rats) stood at 337±53 milliunits/mg protein. Moreover, in [3] (cells from animals treated with 1 μg/g, day 8 of culture), the “G3PDH specific activity, lower than control” value is on record as 60%. Further, in [3] (cells from animals treated with EGF 1 μg/g, 5 separate experiments), the G3PDH specific activity is 337±53 mU/mg protein. Moreover, the “differentiation (G3PDH activity)” value in data set [4] (EGF 10 ng/ml, primary cultures) was “inhibition of differentiation”. Further, the “ED50 for inhibition of differentiation (G3PDH enzyme activity)” value in data set [4] (cells from EGF-treated animals (1 μg/g body weight)) is 0.5 ng/mL. The “ED50 for inhibition of differentiation (G3PDH enzyme activity)” value in [4] (control cells) worked out at 0.9 ng/mL. In addition, the “effect on cell proliferation of the EGF concentration which inhibited differentiation by 50%” value in the data set with adipocyte precursors is reported as “moderate or no effects”. Further, the “proliferation of adipocyte precursors” value in the data set on adipocyte precursors (EGF added to 4F medium, cells from control and EGF-treated rats, 8 days) is “stimulated proliferation”. In the data set with adipocyte precursors (cells from controls or EGF-treated rats), the “EGF concentration giving marked stimulation of proliferation” value is “above 1 ng/ml”. Moreover, the “body weight over a 28 day period” value in the data set with newborn rats is listed as “significant reduction in body weight”. For the same molecule, the “body weight over at least 43 days” value in the data set on obese yellow mice was “prolonged and profound diminution in body weight”. The PLA2 activity entry with phospholipase A2 (PLA2) is given as “increase in PLA2 activity”. Moreover, in data set [5], the “differentiation of primary culture adipocyte precursors from inguinal fat pad of newborn rats” value was “potent inhibitor”.
In the case of transforming growth factor.α [TGFα], the “differentiation of primary culture adipocyte precursors from inguinal fat pad of newborn rats” value in [5] was “potent inhibitor”.
With prostaglandin F2α [PGF2α], the “differentiation of 1246 cells” value in the data set on 1246 cells (indicated doses (FIG. 11)) is given as “concentration-dependent inhibition”.
As for `COc1ccc2c(c1)c(CC(=O)O)c(C)n2C(=O)c1ccc(Cl)cc1` [indomethacin], the “effect on EGF inhibition of adipocyte differentiation” value in the data set on 1246 cells (indomethacin 3 μM with EGF at 2 or 10 ng/ml) is “completely reversed”.
